Test results as given in ChEMBL document CHEMBL1201862, “PubChem BioAssay data set” (2004).
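Protocol summary: plate cells (96-well), add compound at 5 concentrations, incubate 48 h, interpolate endpoints linearly. At the GI50, growth is halved.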 Activity calls are given as the source filed them. Rule as the data show it: active = GI50 up to about 1.1 µM and inactive = higher.

Tests used:
Test in all cases: NCI tumour cell line growth inhibition, 48 h
UO-31 = test system: UO-31
SF-539 = test system: SF-539
DMS-273 = test system: DMS-273
HL-60 = test system: HL-60
SNB-75 = test system: SNB-75
CCRF-CEM = test system: CCRF-CEM
COLO 205 = test system: COLO 205
HOP-92 = test system: HOP-92
RXF 631 = test system: RXF 631
SK-OV-3 = test system: SK-OV-3
K562 = test system: K562
NCI-H460 = test system: NCI-H460
CAKI-1 = test system: CAKI-1
IGROV-1 = test system: IGROV-1
Malme-3M = test system: Malme-3M
EKVX = test system: EKVX
786-0 = test system: 786-0
SNB-78 = test system: SNB-78
NCI-H522 = test system: NCI-H522
TK-10 = test system: TK-10
A549 = test system: A549
HOP-62 = test system: HOP-62
OVCAR-4 = test system: OVCAR-4
UACC-62 = test system: UACC-62
SF-268 = test system: SF-268
UACC-257 = test system: UACC-257
SK-MEL-5 = test system: SK-MEL-5
HCT-15 = test system: HCT-15
ACHN = test system: ACHN
M14 = test system: M14
SF-295 = test system: SF-295
SK-MEL-2 = test system: SK-MEL-2
NCI-H23 = test system: NCI-H23
A498 = test system: A498
MOLT-4 = test system: MOLT-4
RXF 393 = test system: RXF 393
SNB-19 = test system: SNB-19
LXFL 529 = test system: LXFL 529
SW-620 = test system: SW-620
M19-MEL = test system: M19-MEL
DMS-114 = test system: DMS-114
OVCAR-8 = test system: OVCAR-8
RPMI-8226 = test system: RPMI-8226
SK-MEL-28 = test system: SK-MEL-28
XF498 = test system: XF498
HOP-18 = test system: HOP-18
KM-20L2 = test system: KM-20L2
SN12C = test system: SN12C
OVCAR-3 = test system: OVCAR-3
HT-29 = test system: HT-29
U-251 = test system: U-251
HCT-116 = test system: HCT-116
DLD-1 = test system: DLD-1
OVCAR-5 = test system: OVCAR-5

Question: For `Cn1c2c(c3ccccc31)CCN(CCCCN1CCc3c(n(C)c4ccccc34)C1=O)C2`, which GI50 (UO-31) is on record?
Answer: > 100 µM (inactive)

Question: And the GI50 (SF-539)?
Answer: 47.5 µM (inactive)

Question: And the GI50 (DMS-273)?
Answer: > 100 µM (inactive)

Question: What about the GI50 (HL-60) of the same compound?
Answer: > 100 µM (inactive)

Question: And the GI50 (SNB-75)?
Answer: 88.1 µM (inactive)

Question: What about the GI50 (CCRF-CEM) of the same compound?
Answer: > 100 µM (inactive)

Question: And the GI50 (COLO 205)?
Answer: > 100 µM (inactive)

Question: And the GI50 (HOP-92)?
Answer: > 100 µM (inactive)

Question: What about the GI50 (RXF 631) of the same compound?
Answer: > 100 µM (inactive)

Question: What about the GI50 (SK-OV-3) of the same compound?
Answer: 92.7 µM (inactive)

Question: And the GI50 (K562)?
Answer: > 100 µM (inactive)

Question: What about the GI50 (NCI-H460) of the same compound?
Answer: > 100 µM (inactive)

Question: And the GI50 (CAKI-1)?
Answer: > 100 µM (inactive)

Question: And the GI50 (IGROV-1)?
Answer: > 100 µM (inactive)

Question: And the GI50 (Malme-3M)?
Answer: > 100 µM (inactive)

Question: What about the GI50 (EKVX) of the same compound?
Answer: > 100 µM (inactive)

Question: And the GI50 (786-0)?
Answer: > 100 µM (inactive)

Question: What about the GI50 (SNB-78) of the same compound?
Answer: > 100 µM (inactive)

Question: And the GI50 (NCI-H522)?
Answer: > 100 µM (inactive)

Question: And the GI50 (TK-10)?
Answer: > 100 µM (inactive)

Question: And the GI50 (A549)?
Answer: > 100 µM (inactive)

Question: What about the GI50 (HOP-62) of the same compound?
Answer: > 100 µM (inactive)

Question: And the GI50 (OVCAR-4)?
Answer: 36.7 µM (inactive)

Question: What about the GI50 (UACC-62) of the same compound?
Answer: > 100 µM (inactive)

Question: What about the GI50 (SF-268) of the same compound?
Answer: > 100 µM (inactive)

Question: What about the GI50 (UACC-257) of the same compound?
Answer: > 100 µM (inactive)

Question: And the GI50 (SK-MEL-5)?
Answer: > 100 µM (inactive)

Question: What about the GI50 (HCT-15) of the same compound?
Answer: > 100 µM

Question: What about the GI50 (ACHN) of the same compound?
Answer: > 100 µM (inactive)

Question: What about the GI50 (M14) of the same compound?
Answer: > 100 µM (inactive)

Question: What about the GI50 (SF-295) of the same compound?
Answer: > 100 µM (inactive)

Question: And the GI50 (SK-MEL-2)?
Answer: > 100 µM (inactive)

Question: And the GI50 (NCI-H23)?
Answer: > 100 µM (inactive)

Question: What about the GI50 (A498) of the same compound?
Answer: > 100 µM (inactive)

Question: And the GI50 (MOLT-4)?
Answer: > 100 µM (inactive)

Question: And the GI50 (RXF 393)?
Answer: > 100 µM (inactive)

Question: And the GI50 (SNB-19)?
Answer: > 100 µM (inactive)

Question: And the GI50 (LXFL 529)?
Answer: > 100 µM (inactive)

Question: And the GI50 (SW-620)?
Answer: > 100 µM (inactive)

Question: And the GI50 (M19-MEL)?
Answer: > 100 µM (inactive)

Question: What about the GI50 (DMS-114) of the same compound?
Answer: 73.1 µM (inactive)

Question: What about the GI50 (OVCAR-8) of the same compound?
Answer: > 100 µM (inactive)

Question: What about the GI50 (RPMI-8226) of the same compound?
Answer: > 100 µM (inactive)

Question: And the GI50 (SK-MEL-28)?
Answer: > 100 µM (inactive)

Question: And the GI50 (XF498)?
Answer: > 100 µM (inactive)

Question: And the GI50 (HOP-18)?
Answer: > 100 µM (inactive)

Question: What about the GI50 (KM-20L2) of the same compound?
Answer: > 100 µM (inactive)

Question: What about the GI50 (SN12C) of the same compound?
Answer: > 100 µM (inactive)

Question: What about the GI50 (OVCAR-3) of the same compound?
Answer: > 100 µM (inactive)

Question: What about the GI50 (HT-29) of the same compound?
Answer: > 100 µM (inactive)

Question: And the GI50 (U-251)?
Answer: > 100 µM (inactive)

Question: And the GI50 (HCT-116)?
Answer: > 100 µM (inactive)

Question: What about the GI50 (DLD-1) of the same compound?
Answer: > 100 µM (inactive)

Question: What about the GI50 (OVCAR-5) of the same compound?
Answer: > 100 µM (inactive)
